This note sets out measurements from publication PMC5815904 (Circulation research, 2017).

Molecules are shown by their SMILES.

Test [1] deals with T1, Pannexin 1 (PANX1) (Homo sapiens, UniProt Q96RD7). Put plainly: whole-cell patch clamp in apoptotic Jurkat cells. The class given is cell-based. In general terms: The patch-clamp technique gives a direct electrical read-out from membranes.
Target sequence in this assay (Q96RD7 whole entry): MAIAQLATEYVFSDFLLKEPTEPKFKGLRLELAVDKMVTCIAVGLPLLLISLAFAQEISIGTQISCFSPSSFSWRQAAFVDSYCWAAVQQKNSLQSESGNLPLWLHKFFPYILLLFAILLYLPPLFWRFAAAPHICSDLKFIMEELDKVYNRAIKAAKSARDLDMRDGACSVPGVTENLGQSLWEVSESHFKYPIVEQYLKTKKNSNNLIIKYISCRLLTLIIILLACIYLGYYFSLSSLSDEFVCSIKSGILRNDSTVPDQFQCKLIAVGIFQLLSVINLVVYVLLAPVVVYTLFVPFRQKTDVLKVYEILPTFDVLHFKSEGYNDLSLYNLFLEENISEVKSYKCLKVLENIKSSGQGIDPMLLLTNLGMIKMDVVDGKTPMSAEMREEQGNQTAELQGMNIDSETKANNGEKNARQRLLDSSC
In test [2] the target is T1, Pannexin 1 (PANX1). Kind of test: whole-cell patch clamp in HEK293T. The class given is cell-based.
Target sequence in this assay (Q96RD7 1-379 limits assumed): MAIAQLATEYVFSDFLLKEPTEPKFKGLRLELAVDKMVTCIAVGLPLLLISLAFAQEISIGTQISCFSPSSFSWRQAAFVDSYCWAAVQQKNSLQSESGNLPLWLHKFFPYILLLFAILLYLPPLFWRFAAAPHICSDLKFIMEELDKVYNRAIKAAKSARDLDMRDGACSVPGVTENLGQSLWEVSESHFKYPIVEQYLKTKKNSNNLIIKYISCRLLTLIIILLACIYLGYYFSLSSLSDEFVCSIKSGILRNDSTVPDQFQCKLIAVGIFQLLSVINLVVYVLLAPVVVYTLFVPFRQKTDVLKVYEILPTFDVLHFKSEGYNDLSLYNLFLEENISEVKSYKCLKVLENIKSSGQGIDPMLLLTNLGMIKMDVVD

With `CC1(C)[C@@H](OC(=O)CCC(=O)O)CC[C@]2(C)[C@H]3C(=O)C=C4[C@@H]5C[C@@](C)(C(=O)O)CC[C@]5(C)CC[C@@]4(C)[C@]3(C)CC[C@@H]12` [carbenoxolone], in test [1], the “whole-cell patch clamp in apoptotic Jurkat cells” value was “the current sensitive to spironolactone was fully blocked by carbenoxolone (CBX), a drug known to inhibit PANX1”. Broadly, the IC50 is the point on the concentration scale where inhibition reaches its midpoint. For the compound `CC(=O)S[C@@H]1CC2=CC(=O)CC[C@]2(C)[C@H]2CC[C@@]3(C)[C@@H](CC[C@@]34CCC(=O)O4)[C@H]12` [spironolactone], the midpoint of inhibition in test [2], the IC50, lay at 8.7 ± 1.5 µM.
